Results on three compounds are retold here after article PMC10250256, “A radiohybrid theranostics ligand labeled with fluorine-18 and lutetium-177 for fibroblast activation protein-targeted imaging and radionuclide therapy” (European Journal of Nuclear Medicine and Molecular Imaging, 2023).

The target in one data set is T1, HT-1080-FAP tumor slide (Homo sapiens, UniProt Q12884).
T1 construct: from tissue; host or cells: slides of HT-1080-FAP xenograft tumor (transfected human fibrosarcoma cells grown subcutaneously in BALB/C-nu/nu mice)
T1 sequence (Q12884 1-760): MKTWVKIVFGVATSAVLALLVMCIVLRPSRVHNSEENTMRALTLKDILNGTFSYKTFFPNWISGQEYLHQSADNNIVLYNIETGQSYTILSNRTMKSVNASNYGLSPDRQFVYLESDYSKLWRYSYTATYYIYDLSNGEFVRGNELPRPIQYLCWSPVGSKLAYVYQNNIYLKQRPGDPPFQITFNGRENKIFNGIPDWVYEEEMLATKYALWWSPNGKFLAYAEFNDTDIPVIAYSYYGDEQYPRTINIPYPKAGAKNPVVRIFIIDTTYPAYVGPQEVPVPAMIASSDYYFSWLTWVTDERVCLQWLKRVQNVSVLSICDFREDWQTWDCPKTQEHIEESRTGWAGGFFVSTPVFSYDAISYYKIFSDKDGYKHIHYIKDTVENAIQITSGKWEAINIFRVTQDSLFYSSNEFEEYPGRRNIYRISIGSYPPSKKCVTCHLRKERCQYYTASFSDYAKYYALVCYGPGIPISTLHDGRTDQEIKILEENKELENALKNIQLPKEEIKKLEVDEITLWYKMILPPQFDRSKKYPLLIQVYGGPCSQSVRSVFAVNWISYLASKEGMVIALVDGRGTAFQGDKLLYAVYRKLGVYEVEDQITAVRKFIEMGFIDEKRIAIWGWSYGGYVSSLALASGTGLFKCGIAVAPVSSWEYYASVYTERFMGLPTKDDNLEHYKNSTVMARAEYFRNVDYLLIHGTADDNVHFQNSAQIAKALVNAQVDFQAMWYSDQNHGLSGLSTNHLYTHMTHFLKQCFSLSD
As to the kind of experiment: in vitro autoradiography of HT-1080-FAP tumor slides. Conditions: unlabeled 20 at 130 μM. How it is done: The slides of HT-1080-FAP tumor were incubated with [^18F]21 for 1 h, exposed on a phosphoscreen, and subsequently scanned on a Beckman Coulter FLA7000IP Typhoon storage phosphorimager. Immunohistochemical staining of FAP was performed on the adjacent section.

Another data set deals with T2, FAP (Homo sapiens, UniProt Q12884).
T2 construct: expressed in transfected cells; host or cells: HT-1080 human fibrosarcoma cells (HT-1080-FAP)
T2 sequence (Q12884 1-760): T1 sequence (Q12884 1-760)
As to the kind of experiment: competitive FAP binding assay against [^177Lu]Lu-FAPI-04 in HT-1080-FAP cells.

The test system of the next data set is HT-1080 xenograft. As to the kind of experiment: micro-PET/CT imaging, FAP-negative HT-1080 xenograft. It counts as in vivo, BALB/C-nu/nu mice. Conditions: dynamic PET 0-120 min. How it is done:
(§1) All animal experiments were conducted in compliance with a protocol approved by the First Affiliated Hospital of Sun Yat-sen University Institutional Animal Care and Use Committee. BALB/C-nu/nu mice (4–5-week old with body weight of 16–22 g) were purchased from GemPharmatech Co., Ltd. Mice were housed under standard conditions with temperature and light control (12-h-light/12-h-dark cycle) and had free access to water and food. For the tumor model, HT-1080-FAP or HT-1080 cells (5 × 10^6) were subcutaneously injected into the right or left flank of nude mice, respectively. As the tumor diameter reached 3–4 mm, mice were treated with radioligands. Micro-PET and SPECT imaging studies, as well as biodistribution, were conducted when the tumor diameter reached 5–10 mm.
(§2) The dynamic micro-PET/CT (Siemens Inveon) imaging studies were conducted to evaluate the pharmacokinetics. The HT-1080-FAP and HT-1080 tumor-bearing mice were injected with 3.7–7.4 MBq of [^18F]21 or [^68 Ga]Ga-FAPI-04 via tail vein. […] Dynamic PET scans were performed from 0 to 120 min with image reconstruction of every 5 min. Micro-PET imaging was reconstructed using a three-dimensional ordered-subset expectation maximum (OSEM) algorithm (Siemens, Erlangen, Germany). The images and regions of interest (ROIs) were produced using Inveon Research Workplace (Siemens, Erlangen, Germany).

The test system of data set [1] is HT-1080-FAP cells. As to the kind of experiment: cell uptake in HT-1080-FAP cells. It is filed as cell-based, human. On the procedure:
(§3) The human fibrosarcoma cell lines HT-1080 and HT-1080-FAP transferred with human FAP gene were both cultured in Dulbecco modified Eagle medium supplemented with 10% fetal bovine serum (Gibco, USA) at 37℃/5% carbon dioxide. For cell uptake experiments, HT-1080-FAP cells (~ 1 × 10^5/well) or HT-1080 (~ 1 × 10^5/well) were seeded in 24-well plates for 24–48 h and incubated at 37℃ with radiolabeled compounds (74 kBq/well) in 0.5 mL of serum-free medium for indicated times. Non-specific binding was determined by co-incubating with 100 μM FAP inhibitor UAMC1110. For competitive FAP binding assays, HT-1080-FAP cells were incubated with [^177Lu]Lu-FAPI-04 (74 kBq/well) in the presence of different concentrations (10^−3–10^4 nM) of competing non-radioactive ligands. For internalization experiments, the radiotracer-incubated cells were washed twice with PBS (pH 7.4), followed by glycine–HCl (0,05 M, pH = 2.8) solution to distinguish between cell surface–bound (acid-releasable) and internalized (acid-resistant) radioligand. For efflux experiments, cells were preincubated with [^177Lu]21 or [^177Lu]Lu-FAPI-04 for 1 h and subsequently incubated at 37 °C in a medium free of radiotracer and serum for different time periods. The medium was removed and the cells were washed twice with cold PBS (pH 7.4) and subsequently lysed with 0.5 mL of NaOH (1 M). Cell lysates were collected and the radioactivity was determined using a γ-counter.

The nature of data set [2]: in vitro stability in PBS or murine serum (radio-HPLC). It counts as in vitro ADME. How it is done: (§4) [^18F]21 or [^177Lu]21 (50 μCi, 10 μL) was added to PBS (90 μL) or murine serum (90 μL) and the mixture was incubated at 37 °C for a certain time ([^18F]21: 2 h, [^177Lu]21: 8 d). The PBS mixture was injected directly into the radio-HPLC for analysis. The murine serum was precipitated with 0.1 mL of acetonitrile and centrifuged (10,000 rpm, 5 min). The supernatant was measured and analyzed by the radio-HPLC to determine the stability. For in vivo stability study, the radio tracers were injected into the tail vein of ICR mice and samples of blood were collected after a certain time post injection (pi) ([^18F]21: 4 h, [^177Lu]21: 9 h). The plasma proteins were precipitated using an equal volume of acetonitrile and centrifuged (10,000 rpm, 5 min). The RCP of radio tracer in supernatants were analyzed and quantified by radio-HPLC. The radio-HPLC method was as follows: A: 0.1% TFA in H2O, B: ACN, 0–10 min, 0–100% B. The flow rate was 1 mL/min, and the C18 column (4.6 × 150 mm, 5 μm, ZORBAX, Agilent) was used. When using HPLC to assess the stability of [^177Lu]21, the effluent was collected every 30 s due to its less radioactivity, and samples were measured by an automatic γ-counter (2480 Wizard2, Perkin Elmer). The counted samples were plotted as intensity (cpm) against fraction.

Data set [3] concerns HT-1080-FAP cells. In words: internalization experiments in HT-1080-FAP cells. It counts as cell-based, human. Conditions: 10 min. How it is done: as §3, with “The medium was removed and the cells were washed twice with cold PBS (pH 7.4) and subsequently lysed with 0.5 mL of NaOH (1 M).” left out
Data set [4] in a line: in vivo stability in ICR mice, blood samples (radio-HPLC). On the procedure: as §4
Another data set has as its system HT-1080-FAP xenograft. In words: micro-PET/CT imaging, HT-1080-FAP xenograft. It counts as in vivo, BALB/C-nu/nu mice. How it is done:
as §1, §2

The subject of the next data set is HT-1080 cells. In words: cell uptake in HT-1080 (FAP negative) cells. It counts as cell-based, human. On the procedure: as §3, with “The medium was removed and the cells were washed twice with cold PBS (pH 7.4) and subsequently lysed with 0.5 mL of NaOH (1 M).” left out
Setting [5] is: 60 min pi, FAPI-04 25 μg/animal co-injected.

Molecules are shown by their SMILES. Where “and” joins values, the source holds several entries; their conditions need not be identical. Equal values may be shown once. Entries after “also recorded” stand apart in the source; their conditions may differ. Read-outs that look alike come from different tables or passages of the source.

On to `CC(C)(C)[Si](F)(c1ccc(C(=O)NC[C@H](NC(=O)CCC(C(=O)O)N2CCN(CC(=O)O)CCN(CC(=O)O)CCN(CC(=O)O)CC2)C(=O)NC[C@H]2CC[C@H](C(=O)NCCCOc3ccc4nccc(C(=O)NCC(=O)N5CC(F)(F)C[C@H]5C#N)c4c3)CC2)cc1)C(C)(C)C` (stereo partly drawn) [Compound 20], for which the “blocking of [^18F]21 autoradiography signal” value on HT-1080-FAP tumor slide is reported as “could be blocked by unlabeled 20”. The compound also yielded a 50% inhibitory concentration (IC50) at FAP of 2.29 ± 1.12 nM.
On to `CC(C)(C)[Si](F)(c1ccc(C(=O)NCC(NC(=O)CCC(C(=O)O)N2CCN(CC(=O)[O-])CCN(CC(=O)[O-])CCN(CC(=O)[O-])CC2)C(=O)NCC2CCC(C(=O)NCCCOc3ccc4nccc(C(=O)NCC(=O)N5CC(F)(F)CC5C#N)c4c3)CC2)cc1)C(C)(C)C.[Lu+3]` (stereo not drawn) [Compound 21], for which the IC50 on FAP (HT-1080-FAP cells, competition with [^177Lu]Lu-FAPI-04, read-out: IC50 (binding affinity towards FAP)) was 2.53 ± 1.87 nM.
For `CC(C)(C)[Si]([18F])(c1ccc(C(=O)NCC(NC(=O)CCC(C(=O)O)N2CCN(CC(=O)[O-])CCN(CC(=O)[O-])CCN(CC(=O)[O-])CC2)C(=O)NCC2CCC(C(=O)NCCCOc3ccc4nccc(C(=O)NCC(=O)N5CC(F)(F)CC5C#N)c4c3)CC2)cc1)C(C)(C)C.[Lu+3]` (stereo not drawn) [[^18F]21], the “FAP-negative HT-1080 tumor uptake (PET)” value in the data set on HT-1080 xenograft was “did not show any uptakes”. In addition, in the data set with HT-1080-FAP cells [1] (10 min incubation), the cell uptake was 60.18% ± 3.84. Also, the cell uptake in the data set on HT-1080-FAP cells [1] (1 h incubation) is 86.43% ± 5.47 and 86.43% ± 5.46. Besides, in the data set with HT-1080-FAP cells [1] (co-incubation with 100 μM FAP inhibitor UAMC1110), the “cell uptake with competitor” value is listed as “could be blocked by FAP inhibitor; also recorded: could be blocked by UAMC1110”. For the same compound, in data set [2] (37 °C, PBS or murine serum), the “time stable in vitro” value was “at least 2 h”. The in vitro stability in data set [2] (as summarised in discussion) was more than 90%. In the data set with HT-1080-FAP cells [3], the internalization rate is recorded as more than 80%. Moreover, in [4] (ICR mice, within 4 h pi), the “metabolization in blood samples (radio-HPLC)” value is recorded as “little evidence of any metabolization”. Also, in data set [4] (as summarised in discussion), the in vivo stability is given as more than 90%. Besides, the “tumor uptake (PET ROI), without competitor” value with HT-1080-FAP xenograft (60 min pi) was 14.13 ± 3.19 %ID/g. In the data set on HT-1080-FAP xenograft (setting [5]), the “tumor uptake (PET ROI), blocking with FAPI-04” value was 3.8 ± 0.89 %ID/g and the “uptake in joints, blocking with FAPI-04” value is listed as “blocked significantly”. Besides, the “fold higher tumor uptake than [^68 Ga]Ga-FAPI-04” value in the data set on HT-1080-FAP xenograft (2 h pi) turned out to be 14.9 fold. Besides, in the data set with HT-1080-FAP xenograft (2 h pi, dynamic PET), the “HT-1080-FAP tumor uptake (PET)” value is recorded as 10.04 %ID/g. The “cell uptake in FAP negative cells” value with HT-1080 cells is on record as “Almost no uptakes”.
